According to patent US5089498A, “Substituted 4-aminoquinoline derivatives as gastric acid secretion inhibitors” (SmithKline Beckman Intercredit B.V., priority 1988, dated 1992):

Test system: pentagastrin stimulated gastric acid secretion
Assay: Rat Lumen Perfused Stomach (pentagastrin stimulated gastric acid secretion)
Format: in vivo
Settings: i.v., 10 μmole/kg
Excerpt: B. Rat Lumen Perfused Stomach (pentagastrin stimulated gastric acid secretion).
Using a modification of the procedure described by Ghosh & Schild (Br. J. Pharmacology, 13, 54, 1958), the compounds of the following examples were found on i.v. administration at a concentration of 10 μmole/kg to cause an inhibition of pentagastrin stimulated gastric acid secretion a follows: […]

SMILES	% inhibition of pentagastrin stimulated gastric acid secretion [%]
CCCC(=O)c1cnc2c(C(N)=O)cccc2c1Nc1ccccc1C [Example 2, 3-butyryl-4-(2-methylphenylamino)quinoline-8-carboxamide]	39
CCCC(=O)c1cnc2c(C(=O)OC)cccc2c1Nc1ccccc1C [Example 1, methyl 3-butyryl-4-(2-methylphenylamino)quinoline-8-carboxylate]	42
